ChEMBL document CHEMBL5104124, “Recent advances on synthesis and biological activities of C-17 aza-heterocycle derived steroids” (Bioorg Med Chem, 2022)

Columns and labels:
MCF7 [1] = assay: Antiproliferative activity against human MCF7 cells assessed as cell growth inhibition; format: functional, cell-based
SK-OV-3 = assay: Antiproliferative activity against human SK-OV-3 cells assessed as cell growth inhibition; format: functional, cell-based
HepG2 [2] = assay: Antiproliferative activity against human HepG2 cells assessed as cell growth inhibition; format: functional, cell-based
HeLa [3] = assay: Antiproliferative activity against human HeLa cells assessed as cell growth inhibition; format: functional, cell-based
K562 = assay: Antiproliferative activity against human K562 cells assessed as cell growth inhibition measured after 5 days by MTT assay; format: functional, cell-based; settings: K562, 120 h
[4] = Antiproliferative activity against human WM35 cells assessed as cell growth inhibition measured after 5 days by MTT assay; format: functional, cell-based; settings: WM35, 120 h
Tubulin = Tubulin (Sus scrofa, UniProt P02554+P02550); assay: Inhibition of porcine brain tubulin polymerization preincubated for 30 mins followed by GTP addition by absorbance based analysis; format: tissue-based
OVCAR-3 = assay: Antiproliferative activity against human OVCAR-3 cells assessed as cell growth inhibition measured after 5 days by MTT assay; format: functional, cell-based; settings: OVCAR-3, 120 h
MCF7 [5] = assay: Antiproliferative activity against human MCF7 cells assessed as cell growth inhibition measured after 72 hrs by MTT assay; format: functional, cell-based; settings: MCF7, 72 h
T47D = assay: Antiproliferative activity against human T47D cells assessed as cell growth inhibition measured after 72 hrs by MTT assay; format: functional, cell-based
MDA-MB-361 = assay: Antiproliferative activity against human MDA-MB-361 cells assessed as cell growth inhibition measured after 72 hrs by MTT assay; format: functional, cell-based; settings: MDA-MB-361, 72 h
[6] = target: 3-oxo-5-alpha-steroid 4-dehydrogenase 2 (Rattus norvegicus, UniProt P31214); assay: Inhibition of rat liver microsomal SRD5A2 incubated for 60 mins by thin layer chromatography; format: microsomes, Microsome
Sequence of 3-oxo-5-alpha-steroid 4-dehydrogenase 2 (Rattus norvegicus, UniProt P31214) (P31214 whole entry): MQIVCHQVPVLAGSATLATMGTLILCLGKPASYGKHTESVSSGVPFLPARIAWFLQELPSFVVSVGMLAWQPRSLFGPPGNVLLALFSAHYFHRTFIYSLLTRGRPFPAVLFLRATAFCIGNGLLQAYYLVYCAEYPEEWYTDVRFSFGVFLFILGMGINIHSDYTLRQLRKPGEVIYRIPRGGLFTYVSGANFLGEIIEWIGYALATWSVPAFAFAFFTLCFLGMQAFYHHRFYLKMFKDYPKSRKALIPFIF

[7] = target: 3-oxo-5-alpha-steroid 4-dehydrogenase 1 (Rattus norvegicus, UniProt P24008); assay: Inhibition of rat liver microsomal SRD5A1 incubated for 60 mins by thin layer chromatography; format: microsomes, Microsome
Sequence of 3-oxo-5-alpha-steroid 4-dehydrogenase 1 (Rattus norvegicus, UniProt P24008) (P24008 whole entry): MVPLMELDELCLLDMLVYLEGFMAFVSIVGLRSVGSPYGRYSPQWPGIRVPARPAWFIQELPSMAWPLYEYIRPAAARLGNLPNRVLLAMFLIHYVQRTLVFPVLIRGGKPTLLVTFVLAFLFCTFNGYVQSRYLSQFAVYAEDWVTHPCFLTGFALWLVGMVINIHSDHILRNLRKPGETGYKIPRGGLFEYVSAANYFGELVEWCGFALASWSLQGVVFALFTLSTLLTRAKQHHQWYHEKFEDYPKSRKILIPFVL

MDA-MB-231 = assay: Antiproliferative activity against human MDA-MB-231 cells assessed as cell growth inhibition; format: functional, cell-based
CCRF-CEM [8] = assay: Antiproliferative activity against human CEM cells assessed as cell growth inhibition; format: functional, cell-based
HT-29 = assay: Antiproliferative activity against human HT-29 cells assessed as cell growth inhibition; format: functional, cell-based
[9] = Antiangiogenesis activity in Bovine BAEC cells assessed as increase in tube formation incubated for 18 hrs by microscopic analysis; format: functional, cell-based; settings: Bos taurus
[10] = Antiproliferative activity against African green monkey Vero cells assessed as cell growth inhibition; format: toxicity, cell-based; settings: African green monkey (Chlorocebus sabaeus)
[11] = Antiproliferative activity against human HMEC-1 cells assessed as cell growth inhibition; format: toxicity, cell-based
[12] = target: 3-oxo-5-alpha-steroid 4-dehydrogenase 1 (Homo sapiens, UniProt P18405); assay: Inhibition of human prostate SRD5A1 incubated for 60 mins by scintillation counter; format: tissue-based, Prostate gland
Sequence of 3-oxo-5-alpha-steroid 4-dehydrogenase 1 (Homo sapiens, UniProt P18405) (P18405 whole entry): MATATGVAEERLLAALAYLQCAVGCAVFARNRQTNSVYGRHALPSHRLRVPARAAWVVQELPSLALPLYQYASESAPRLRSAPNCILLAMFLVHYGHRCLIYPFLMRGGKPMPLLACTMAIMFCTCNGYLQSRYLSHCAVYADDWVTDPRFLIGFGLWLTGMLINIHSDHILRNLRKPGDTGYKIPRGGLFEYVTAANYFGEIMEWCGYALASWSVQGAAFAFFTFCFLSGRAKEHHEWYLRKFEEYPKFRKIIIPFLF

[13] = target: 3-oxo-5-alpha-steroid 4-dehydrogenase 2 (Homo sapiens, UniProt P31213); assay: Inhibition of SRD5A2 in HEK293 incubated for 60 mins by thin layer chromatography; format: cell-based
Sequence of 3-oxo-5-alpha-steroid 4-dehydrogenase 2 (Homo sapiens, UniProt P31213) (P31213 whole entry): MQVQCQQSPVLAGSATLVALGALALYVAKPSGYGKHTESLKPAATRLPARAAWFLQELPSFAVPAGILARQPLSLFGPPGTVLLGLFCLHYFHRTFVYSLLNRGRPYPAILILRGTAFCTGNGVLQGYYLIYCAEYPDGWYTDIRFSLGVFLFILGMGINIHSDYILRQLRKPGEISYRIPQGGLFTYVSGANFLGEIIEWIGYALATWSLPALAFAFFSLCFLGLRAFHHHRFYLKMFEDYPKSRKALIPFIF

SGC-7901 = assay: Antiproliferative activity against human SGC-7901 cells assessed as cell growth inhibition by MTT assay; format: functional, cell-based
HepG2 [14] = assay: Antiproliferative activity against human HepG2 cells assessed as cell growth inhibition by MTT assay; format: functional, cell-based
Huh-7 = assay: Antiproliferative activity against human Huh-7 cells assessed as cell growth inhibition by MTT assay; format: functional, cell-based
Staphylococcus aureus [15] = assay: Antibacterial activity against methicillin resistant Staphylococcus aureus chicken isolate assessed as inhibition of bacterial growth measured after 24 hrs by CLSI protocol based microdilution assay; format: functional
Corynebacterium sp. = assay: Antibacterial activity against Corynebacterium assessed as inhibition of bacterial growth measured after 24 hrs by CLSI protocol based microdilution assay; format: functional
Staphylococcus aureus [16] = assay: Antibacterial activity against methicillin resistant Staphylococcus aureus ATCC 25923 assessed as inhibition of bacterial growth measured after 24 hrs by CLSI protocol based microdilution assay; format: functional
Candida albicans = assay: Antifungal activity against Candida albicans ATCC 10231 assessed as fungal growth inhibition measured after 24 hrs by CLSI protocol based microdilution assay; format: functional
Staphylococcus aureus [17] = assay: Antibacterial activity against methicillin resistant Staphylococcus aureus ATCC 43300 assessed as inhibition of bacterial growth measured after 24 hrs by CLSI protocol based microdilution assay; format: functional
Enterococcus faecalis = assay: Antibacterial activity against Enterococcus faecalis ATCC 19433 assessed as inhibition of bacterial growth measured after 24 hrs by CLSI protocol based microdilution assay; format: functional
Brevibacterium = assay: Antibacterial activity against Brevibacterium assessed as inhibition of bacterial growth measured after 24 hrs by CLSI protocol based microdilution assay; format: functional
Bacillus cereus = assay: Antibacterial activity against Bacillus cereus ATCC 11778 assessed as inhibition of bacterial growth measured after 24 hrs by CLSI protocol based microdilution assay; format: functional
Staphylococcus aureus [18] = assay: Antibacterial activity against Staphylococcus aureus ATCC 25923 assessed as inhibition of bacterial growth measured after 24 hrs by CLSI protocol based microdilution assay; format: functional
Escherichia coli = assay: Antibacterial activity against Escherichia coli DSM 10233 assessed as inhibition of bacterial growth measured after 24 hrs by CLSI protocol based microdilution assay; format: functional
Staphylococcus aureus [19] = assay: Antibacterial activity against methicillin resistant Staphylococcus aureus human isolate assessed as inhibition of bacterial growth measured after 24 hrs by CLSI protocol based microdilution assay; format: functional
HepG2 [20] = assay: Antiproliferative activity against human HepG2 cells assessed as cell growth inhibition measured after 24 hrs by MTT assay; format: functional, cell-based; settings: HepG2, 24 h
ECa-109 cell line = assay: Antiproliferative activity against human EC109 cells assessed as cell growth inhibition measured after 72 hrs by MTT assay; format: functional, cell-based; settings: ECa-109, 72 h
MGC-803 = assay: Antiproliferative activity against human MGC-803 cells assessed as cell growth inhibition measured after 72 hrs by MTT assay; format: functional, cell-based; settings: MGC-803, 72 h
EC9706 = assay: Antiproliferative activity against human EC9706 cells assessed as cell growth inhibition measured after 72 hrs by MTT assay; format: functional, cell-based; settings: EC9706, 72 h
[21] = Antiproliferative activity against human HMEC-1 cells assessed as cell growth inhibition measured after 4 days by coulter counter assay; format: toxicity, cell-based
HeLa [22] = assay: Antiproliferative activity against human HeLa cells assessed as cell growth inhibition measured after 4 days by coulter counter assay; format: functional, cell-based; settings: 96 h
CCRF-CEM [23] = assay: Antiproliferative activity against human CEM cells assessed as cell growth inhibition measured after 4 days by coulter counter assay; format: functional, cell-based; settings: 96 h
LNCaP = assay: Antiproliferative activity against human LNCaP cells assessed as cell growth inhibition measured after 96 hrs by MTT assay; format: functional, cell-based
PC-3 = assay: Antiproliferative activity against human PC-3 cells assessed as cell growth inhibition measured after 96 hrs by MTT assay; format: functional, cell-based; settings: PC-3, 96 h
[24] = Inhibition of Wistar rat testicular 3beta-HSD incubated for 20 mins by liquid scintillation counting analysis; format: tissue-based, Testis

C[C@]12CC[C@H]3[C@@H](CC=C4C[C@@H](O)CC[C@@]43C)[C@@H]1CC[C@@H]2c1cc(-c2ccc(O)cc2)c(C#N)c(N)n1
IC50 (MCF7 [1]): 8810 nM | IC50 (SK-OV-3): 5080 nM | IC50 (HepG2 [2]): 12400 nM | IC50 (HeLa [3]): 8140 nM

COc1cc2c(cc1O)CC[C@@H]1[C@@H]2CC[C@]2(C)[C@@H](c3cn(-c4ccc(OC(F)(F)F)cc4)nn3)CC[C@@H]12
IC50 (K562): 700 nM | IC50 [4]: 2900 nM | IC50 (Tubulin): 5900 nM | IC50 (OVCAR-3): 900 nM

C[C@]12CC[C@H](O)CC1=CC[C@@H]1[C@@H]2CC[C@]2(C)C3=NN(c4ccc(C#N)cc4)C[C@@H]3C[C@@H]12
IC50 (MCF7 [5]): 1100 nM | IC50 (T47D): 1450 nM | IC50 (MDA-MB-361): 940 nM

C[C@]12CC[C@H](OC(=O)C3CC3)CC1=CC[C@@H]1[C@@H]2CC[C@]2(C)C(n3cnc4ccccc43)=C(C=O)C[C@@H]12
IC50 [6]: 4 nM | IC50 [7]: 320 nM

COc1cc2c(cc1OS(N)(=O)=O)CC[C@@H]1[C@@H]2CC[C@]2(C)C(c3cncc(Cl)c3)=CC[C@@H]12
IC50 (MDA-MB-231): 110 nM | IC50 (CCRF-CEM [8]): 39 nM | IC50 (HT-29): 110 nM | IC50 (Tubulin): 2100 nM | IC50 [9]: 200 nM | IC50 [10]: 30 nM | IC50 (HeLa [3]): 370 nM | IC50 [11]: 400 nM

C[C@]12CC[C@H](O)CC1=CC[C@@H]1[C@@H]2CC[C@]2(C)C(c3ccn(-c4ccc(Cl)cc4)n3)=CC[C@@H]12
IC50 [12]: 14.2 nM | IC50 [13]: 35.3 nM

C[C@]12CC[C@H](O)CC1=CC[C@@H]1[C@@H]2CC[C@]2(C)c3nc(N)nc(-c4ccccc4Cl)c3C[C@@H]12
IC50 (SGC-7901): 10600 nM | IC50 (HepG2 [14]): 5410 nM | IC50 (Huh-7): 5650 nM

COc1cc2c(cc1O)CC[C@@H]1[C@@H]2CC[C@]2(C)[C@@H](c3cn(-c4ccc(C(F)(F)F)cc4)nn3)CC[C@@H]12
IC50 (K562): 1000 nM | IC50 [4]: 1900 nM | IC50 (Tubulin): 8100 nM | IC50 (OVCAR-3): 1400 nM

CCCCCCn1c[n+](CCCCCC)c2c1[C@@]1(C)CC[C@H]3[C@@H](CC=C4C[C@@H](O)CC[C@@]43C)[C@@H]1C2.[I-]
MIC (Staphylococcus aureus [15]): 1 µg/mL | MIC (Corynebacterium sp.): 8 µg/mL | MIC (Staphylococcus aureus [16]): 0.5 µg/mL | MIC (Candida albicans): 1 µg/mL | MIC (Staphylococcus aureus [17]): 1 µg/mL | MIC (Enterococcus faecalis): 4 µg/mL | MIC (Brevibacterium): 0.5 µg/mL | MIC (Bacillus cereus): 1 µg/mL | MIC (Staphylococcus aureus [18]): 0.5 µg/mL | MIC (Escherichia coli): 4 µg/mL | MIC (Staphylococcus aureus [19]): 1 µg/mL

COc1ccncc1C1=CC[C@H]2[C@@H]3CC=C4C[C@@H](OC(=O)[C@H](O)[C@@H](NC(=O)c5ccccc5)c5ccccc5)CC[C@]4(C)[C@H]3CC[C@]12C
IC50 (HepG2 [20]): 67700 nM

CCCCCCCn1c[n+](CCCCCCC)c2c1[C@@]1(C)CC[C@H]3[C@@H](CC=C4C[C@@H](O)CC[C@@]43C)[C@@H]1C2.[I-]
MIC (Staphylococcus aureus [15]): 0.5 µg/mL | MIC (Corynebacterium sp.): 1 µg/mL | MIC (Staphylococcus aureus [16]): 1 µg/mL | MIC (Candida albicans): 1 µg/mL | MIC (Staphylococcus aureus [17]): 1 µg/mL | MIC (Enterococcus faecalis): 1 µg/mL | MIC (Brevibacterium): 0.25 µg/mL | MIC (Bacillus cereus): 0.5 µg/mL | MIC (Staphylococcus aureus [18]): 0.25 µg/mL | MIC (Escherichia coli): 4 µg/mL | MIC (Staphylococcus aureus [19]): 1 µg/mL

COc1cc2c(cc1OS(N)(=O)=O)CC[C@@H]1[C@@H]2CC[C@]2(C)C(c3ccnc(Cl)c3)=CC[C@@H]12
IC50 (CCRF-CEM [8]): 260 nM | IC50 (HT-29): 430 nM | IC50 (Tubulin): 2300 nM | IC50 [9]: 100 nM | IC50 [10]: 1300 nM | IC50 (HeLa [3]): 1600 nM | IC50 [11]: 2300 nM

C[C@]12CC[C@H](O)CC1=CC[C@@H]1[C@@H]2CC[C@]2(C)c3nc(NCc4ccc(Cl)cc4)sc3C[C@@H]12
IC50 (ECa-109 cell line): 196 nM | IC50 (MGC-803): 10300 nM | IC50 (EC9706): 39300 nM

C[C@]12CC[C@H](O)CC1=CC[C@@H]1[C@@H]2CC[C@]2(C)C(c3ccc4[nH]ccc4c3)=CC[C@@H]12
IC50 at 4 days [21]: 590 nM | IC50 (HeLa [22]): 2900 nM | IC50 (CCRF-CEM [23]): 1500 nM

C[C@]12CC[C@H](O)CC1=CC[C@@H]1[C@@H]2CC[C@]2(C)C(c3nc4ccccc4[nH]3)=CC[C@@H]12
IC50 (LNCaP): 3800 nM | IC50 (PC-3): 6900 nM

COC(=O)c1cc([C@H]2CC[C@H]3[C@@H]4CCC5=CC(=O)CC[C@]5(C)[C@H]4CC[C@]23C)n(-c2ccc(OC)cc2)n1
IC50 [24]: 420 nM

CC(=O)N1N=C(C2=CC[C@H]3[C@@H]4CC=C5C[C@@H](O)CC[C@]5(C)[C@H]4CC[C@]23C)C[C@H]1c1ccc(F)cc1
IC50 [12]: 13.9 nM | IC50 [13]: 27.3 nM

C[C@]12CC[C@H](O)CC1=CC[C@@H]1[C@@H]2CC[C@]2(C)C(n3cnc4ccccc43)=C(C=O)C[C@@H]12
IC50 [6]: 127 nM
